Test system: HepG2 hepatocytes tissue layers
Assay: Live cell viability / CEIS recordings in the presence of a cytotoxic agent (EtOH)
Format: cell-based, human
Conditions: 12 hour exposure to EtOH (70% final); HEPG2 2 million cells/mL with PEG-PLL (1:10) hydrogel
Description: A toxicological agent, Ethanol (EtOH) was used as a clinically relevant cytotoxic agent for the HepG2 hepatocytes tissue layers, HEPG2 (2 million cells/mL) with PEG-PLL (1:10) hydrogel. CEIS recordings were obtained at 1 hour and 24 hours post deposition with and without the cytoxic agent, Table 3. A final CEIS recording was obtained from these cells following a 12 hour exposure to EtOH (70% final). A marked increase in amplitude with additional recovery time post deposition (1 vs 24 hours).

## CCO [EtOH, Ethanol]
  amplitude of CEIS recordings: increased the observed amplitude of CEIS recordings

Source: patent US20230346281A1, “Fully Printed Electrode Biological Interface” (Early Charm Ventures, priority 2022, published 2023)
